target: hQC (Homo sapiens, UniProt Q16769); experiment: Inhibitor assay for glutaminyl cyclase activity (fluorometric, H-Gln-βNA / H-Gln-AMC); type: biochemical; conditions: compound from preparative synthesis, purified; read-out: IC50 hQC
In short: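 Coupled fluorometric assay at 30 °C with pyroglutamyl aminopeptidase, in Tris/HCl pH 8.0 with EDTA, substrate H-Gln-βNA (0.2 mM; ex/em 320/410 nm) or H-Gln-AMC (ex/em 380/460 nm), initiated by QC. Screening: 4 mM inhibitor, substrate at 1 KM; Ki from progress curves fitted to competitive inhibition.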

hQC, sequence (Q16769 29-361): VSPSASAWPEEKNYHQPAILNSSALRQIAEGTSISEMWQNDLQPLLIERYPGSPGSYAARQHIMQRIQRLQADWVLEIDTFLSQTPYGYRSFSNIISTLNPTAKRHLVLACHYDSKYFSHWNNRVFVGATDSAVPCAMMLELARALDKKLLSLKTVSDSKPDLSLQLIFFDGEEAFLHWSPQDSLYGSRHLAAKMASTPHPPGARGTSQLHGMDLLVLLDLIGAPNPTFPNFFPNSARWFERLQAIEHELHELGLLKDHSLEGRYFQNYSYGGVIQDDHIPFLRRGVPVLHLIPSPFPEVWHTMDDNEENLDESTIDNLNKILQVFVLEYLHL

IC50	SMILES
1910 nM	Cc1ccc(C2C(c3ccccc3)=C(O)C(=O)N2CCCn2ccnc2)cc1 (stereo not drawn) [Compound 77, 3-Hydroxy-1-(3-imidazol-1-yl-propyl)-4-phenyl-5-p-tolyl-1,5-dihydro-pyrrol-2-one]
1310 nM	CCCCCC1=C(O)C(=O)N(CCCn2ccnc2)C1c1ccco1 (stereo not drawn) [Compound 213, 5-Furan-2-yl-3-hydroxy-1-(3-imidazol-1-yl-propyl)-4-pentyl-1,5-dihydro-pyrrol-2-one]
559 nM	O=C1C(O)=C(c2ccc(O)cc2)C(C2CCC=CO2)N1CCCn1ccnc1 (stereo not drawn) [Compound 163, 5-(3,4-Dihydro-2H-pyran-2-yl)-3-hydroxy-4-(4-hydroxy-phenyl)-1-(3-imidazol-1-yl-propyl)-1,5-dihydro-pyrrol-2-one]
1540 nM	CCCCCC1=C(O)C(=O)N(CCCn2ccnc2)C1c1ccccc1F (stereo not drawn) [Compound 217, 5-(2-Fluoro-phenyl)-3-hydroxy-1-(3-imidazol-1-yl-propyl)-4-pentyl-1,5-dihydro-pyrrol-2-one]
1040 nM	CCCCCC1=C(O)C(=O)N(CCCn2ccnc2)C1c1ccc(OC)cc1 (stereo not drawn) [Compound 193, 3-Hydroxy-1-(3-imidazol-1-yl-propyl)-5-(4-methoxy-phenyl)-4-pentyl-1,5-dihydro-pyrrol-2-one]

same assay, conditions: read-out: IC50

IC50	SMILES
2200 nM	Cc1ccc(C2C(c3cccc(O)c3)=C(O)C(=O)N2CCCn2ccnc2)o1 (stereo not drawn) [Compound 11, 3-Hydroxy-4-(3-hydroxy-phenyl)-1-(3-imidazol-1-yl-propyl)-5-(5-methyl-furan-2-yl)-1,5-dihydro-pyrrol-2-one]
4 nM	CCCC(=O)C1=C(O)C(=O)N(c2ccc3[nH]cnc3c2)C1c1ccc2cccc(O)c2n1 (stereo not drawn) [Compound 368, 1-(1H-Benzoimidazol-5-yl)-4-butyryl-3-hydroxy-5-(8-hydroxy-quinolin-2-yl)-1,5-dihydro-pyrrol-2-one]
580 nM	O=C1C(O)=C(c2c[nH]c3ccccc23)C(c2ccc(O)c(Br)c2)N1c1ccc2[nH]cnc2c1 (stereo not drawn) [Compound 438, 1-(1H-Benzoimidazol-5-yl)-5-(3-bromo-4-hydroxy-phenyl)-3-hydroxy-4-(1H-indol-3-yl)-1,5-dihydro-pyrrol-2-one]
4180 nM	CC1=C(O)C(=O)N(c2ccc3[nH]cnc3c2)C1c1c(F)ccc(Cl)c1F (stereo not drawn) [Compound 412, 1-(1H-Benzoimidazol-5-yl)-5-(3-chloro-2,6-difluoro-phenyl)-3-hydroxy-4-methyl-1,5-dihydro-pyrrol-2-one]
40 nM	O=C1C(O)=C(c2ccc(O)cc2)C(c2ccc3cccc(O)c3n2)N1c1ccc2[nH]cnc2c1 (stereo not drawn) [Compound 391, 1-(1H-Benzoimidazol-5-yl)-3-hydroxy-4-(4-hydroxy-phenyl)-5-(8-hydroxy-quinolin-2-yl)-1,5-dihydro-pyrrol-2-one]
1300 nM	O=C1C(O)=C(c2cccc(O)c2)C(c2ccc3[nH]ccc3c2)N1CCCn1ccnc1 (stereo not drawn) [Compound 12, 3-Hydroxy-4-(3-hydroxy-phenyl)-1-(3-imidazol-1-yl-propyl)-5-(1H-indol-5-yl)-1,5-dihydro-pyrrol-2-one]
400 nM	CCC(C)C1C(c2ccccc2)=C(O)C(=O)N1CCCn1ccnc1 (stereo not drawn) [Compound 79, 5-sec-Butyl-3-hydroxy-1-(3-imidazol-1-yl-propyl)-4-phenyl-1,5-dihydro-pyrrol-2-one]
5080 nM	O=C1C(O)=C(c2ccc(O)cc2)C(c2cccc3cccnc23)N1c1ccc2[nH]cnc2c1 (stereo not drawn) [Compound 364, 1-(1H-Benzoimidazol-5-yl)-3-hydroxy-4-(4-hydroxy-phenyl)-5-quinolin-8-yl-1,5-dihydro-pyrrol-2-one]
8680 nM	CCCC(=O)C1=C(O)C(=O)N(c2ccc3[nH]cnc3c2)C1c1ccc[nH]1 (stereo not drawn) [Compound 355, 1-(1H-Benzoimidazol-5-yl)-3-butyryl-4-hydroxy-1,2-dihydro-1′H-[2,2′]bipyrrolyl-5-one]
400 nM	CCCCCC1=C(O)C(=O)N(CCCn2ccnc2)C1CO (stereo not drawn) [Compound 211, 3-Hydroxy-5-hydroxymethyl-1-(3-imidazol-1-yl-propyl)-4-pentyl-1,5-dihydro-pyrrol-2-one]
40 nM	O=C1C(O)=C(c2ccc(O)cc2)C(c2ccco2)N1CCCn1ccnc1 (stereo not drawn) [Compound 176, 5-Furan-2-yl-3-hydroxy-4-(4-hydroxy-phenyl)-1-(3-imidazol-1-yl-propyl)-1,5-dihydro-pyrrol-2-one]
2200 nM	O=C(O)CC1=C(O)C(=O)N(c2ccc3[nH]cnc3c2)C1c1cc(Br)ccc1F (stereo not drawn) [Compound 338, [1-(1H-Benzoimidazol-5-yl)-2-(5-bromo-2-fluoro-phenyl)-4-hydroxy-5-oxo-2,5-dihydro-1H-pyrrol-3-yl]-acetic acid]
5170 nM	CCCC(=O)C1=C(O)C(=O)N(c2ccc3[nH]cnc3c2)C1CCC (stereo not drawn) [Compound 313, 1-(1H-Benzoimidazol-5-yl)-4-butyryl-3-hydroxy-5-propyl-1,5-dihydro-pyrrol-2-one]
40 nM	Cc1ccc(C2C(c3ccccc3)=C(O)C(=O)N2CCCn2ccnc2)cc1 (stereo not drawn) [Compound 77, 3-Hydroxy-1-(3-imidazol-1-yl-propyl)-4-phenyl-5-p-tolyl-1,5-dihydro-pyrrol-2-one]
9130 nM	CC1=C(O)C(=O)N(c2ccc3[nH]cnc3c2)C1c1cc(C)ccc1C (stereo not drawn) [Compound 417, 1-(1H-Benzoimidazol-5-yl)-5-(2,5-dimethyl-phenyl)-3-hydroxy-4-methyl-1,5-dihydro-pyrrol-2-one]
2740 nM	CCC1C(C(C)=O)=C(O)C(=O)N1c1ccc2[nH]cnc2c1 (stereo not drawn) [Compound 439, 4-Acetyl-1-(1H-benzoimidazol-5-yl)-5-ethyl-3-hydroxy-1,5-dihydro-pyrrol-2-one]
40 nM	CCCCCC1=C(O)C(=O)N(CCCn2ccnc2)C1c1ccco1 (stereo not drawn) [Compound 213, 5-Furan-2-yl-3-hydroxy-1-(3-imidazol-1-yl-propyl)-4-pentyl-1,5-dihydro-pyrrol-2-one]
760 nM	CC(=O)C1=C(O)C(=O)N(c2ccc3[nH]cnc3c2)C1c1ccsc1 (stereo not drawn) [Compound 367, 4-Acetyl-1-(1H-benzoimidazol-5-yl)-3-hydroxy-5-thiophen-3-yl-1,5-dihydro-pyrrol-2-one]
40 nM	CCC1=C(O)C(=O)N(c2ccc3[nH]cnc3c2)C1c1coc2ccc(C)cc2c1=O (stereo not drawn) [Compound 428, 1-(1H-Benzoimidazol-5-yl)-4-ethyl-3-hydroxy-5-(6-methyl-4-oxo-4H-chromen-3-yl)-1,5-dihydro-pyrrol-2-one]

IC50	SMILES
2830 nM	CC1=C(O)C(=O)N(c2ccc3[nH]cnc3c2)C1c1ccc2cccc(O)c2n1 (stereo not drawn) [Compound 319, 1-(1H-Benzoimidazol-5-yl)-3-hydroxy-5-(8-hydroxy-quinolin-2-yl)-4-methyl-1,5-dihydro-pyrrol-2-one]
6430 nM	O=C(O)CC1=C(O)C(=O)N(c2ccc3[nH]cnc3c2)C1c1csc2ccccc12 (stereo not drawn) [Compound 408, [2-Benzo[b]thiophen-3-yl-1-(1H-benzoimidazol-5-yl)-4-hydroxy-5-oxo-2,5-dihydro-1H-pyrrol-3-yl]-acetic acid]
40 nM	O=C1C(O)=C(c2c[nH]c3ccccc23)C(c2ccccn2)N1CCCn1ccnc1 (stereo not drawn) [Compound 135, 3-Hydroxy-1-(3-imidazol-1-yl-propyl)-4-(1H-indol-3-yl)-5-pyridin-2-yl-1,5-dihydro-pyrrol-2-one]
40 nM	O=C1C(O)=C(c2ccc(O)cc2)C(C2CCC=CO2)N1CCCn1ccnc1 (stereo not drawn) [Compound 163, 5-(3,4-Dihydro-2H-pyran-2-yl)-3-hydroxy-4-(4-hydroxy-phenyl)-1-(3-imidazol-1-yl-propyl)-1,5-dihydro-pyrrol-2-one]
5530 nM	CC(C)C1=C(O)C(=O)N(c2ccc3[nH]cnc3c2)C1c1ccco1 (stereo not drawn) [Compound 371, 1-(1H-Benzoimidazol-5-yl)-5-furan-2-yl-3-hydroxy-4-isopropyl-1,5-dihydro-pyrrol-2-one]
4900 nM	CCCCCC1C(F)=C(O)C(=O)N1CCCn1ccnc1 (stereo not drawn) [Compound 2, 4-Fluoro-3-hydroxy-1-(3-imidazol-1-yl-propyl)-5-pentyl-1,5-dihydro-pyrrol-2-one]
1300 nM	CC1C(c2ccccc2)=C(O)C(=O)N1CCCn1ccnc1 (stereo not drawn) [Compound 90, 3-Hydroxy-1-(3-imidazol-1-yl-propyl)-5-methyl-4-phenyl-1,5-dihydro-pyrrol-2-one]
40 nM	CCCCCC1=C(O)C(=O)N(CCCn2ccnc2)C1c1ccccc1F (stereo not drawn) [Compound 217, 5-(2-Fluoro-phenyl)-3-hydroxy-1-(3-imidazol-1-yl-propyl)-4-pentyl-1,5-dihydro-pyrrol-2-one]
40 nM	CCCCCC1=C(O)C(=O)N(CCCn2ccnc2)C1c1ccc(OC)cc1 (stereo not drawn) [Compound 193, 3-Hydroxy-1-(3-imidazol-1-yl-propyl)-5-(4-methoxy-phenyl)-4-pentyl-1,5-dihydro-pyrrol-2-one]
9400 nM	O=C1C(O)=C(c2cccc(O)c2)C(c2cc[nH]n2)N1CCCn1ccnc1 (stereo not drawn) [Compound 8, 3-Hydroxy-4-(3-hydroxy-phenyl)-1-(3-imidazol-1-yl-propyl)-5-(1H-pyrazol-3-yl)-1,5-dihydro-pyrrol-2-one]
670 nM	O=C1C(O)=C(c2c[nH]c3ccccc23)C(c2ccc(CO)o2)N1c1ccc2[nH]cnc2c1 (stereo not drawn) [Compound 409, 1-(1H-Benzoimidazol-5-yl)-3-hydroxy-5-(5-hydroxymethyl-furan-2-yl)-4-(1H-indol-3-yl)-1,5-dihydro-pyrrol-2-one]
400 nM	Cc1ccc(C2C(c3c[nH]c4ccccc34)=C(O)C(=O)N2CCCn2ccnc2)o1 (stereo not drawn) [Compound 119, 3-Hydroxy-1-(3-imidazol-1-yl-propyl)-4-(1H-indol-3-yl)-5-(5-methyl-furan-2-yl)-1,5-dihydro-pyrrol-2-one]
1300 nM	CCCCCC1=C(O)C(=O)N(CCCn2ccnc2)C1C1=CCCCC1 (stereo not drawn) [Compound 201, 5-Cyclohex-1-enyl-3-hydroxy-1-(3-imidazol-1-yl-propyl)-4-pentyl-1,5-dihydro-pyrrol-2-one]
40 nM	CCCCCC1=C(O)C(=O)N(CCCn2ccnc2)C1c1ccncc1 (stereo not drawn) [Compound 209, 3-Hydroxy-1-(3-imidazol-1-yl-propyl)-4-pentyl-5-pyridin-4-yl-1,5-dihydro-pyrrol-2-one]
1210 nM	CC1=C(O)C(=O)N(c2ccc3[nH]cnc3c2)C1c1ccc2nonc2c1 (stereo not drawn) [Compound 351, 1-(1H-Benzoimidazol-5-yl)-5-(benzo[c][1,2,5]oxadiazol-5-yl)-3-hydroxy-4-methyl-1,5-dihydro-pyrrol-2-one]
4990 nM	Cc1ccc2occ(C3C(c4c[nH]c5ccccc45)=C(O)C(=O)N3c3ccc4[nH]cnc4c3)c(=O)c2c1 (stereo not drawn) [Compound 346, 1-(1H-Benzoimidazol-5-yl)-3-hydroxy-4-(1H-indol-3-yl)-5-(6-methyl-4-oxo-4H-chromen-3-yl)-1,5-dihydro-pyrrol-2-one]
7600 nM	O=C1C(O)=C(c2ccc(O)cc2)C(c2ccncc2)N1CCCn1ccnc1 (stereo not drawn) [Compound 172, 3-Hydroxy-4-(4-hydroxy-phenyl)-1-(3-imidazol-1-yl-propyl)-5-pyridin-4-yl-1,5-dihydro-pyrrol-2-one]
400 nM	O=C1C(O)=C(c2ccccc2)C(C2CC2)N1CCCn1ccnc1 (stereo not drawn) [Compound 105, 5-Cyclopropyl-3-hydroxy-1-(3-imidazol-1-yl-propyl)-4-phenyl-1,5-dihydro-pyrrol-2-one]
